Experimental data reported in patent US8158340B2, “Methods for detecting conformational changes in bioentities” (Corning Incorporated, priority 2005, dated 2012).
Counter-ions that a name gives are not always drawn. One block for each molecule: values may come before it.

Key:
[1] = target: T1, H.S.A. (Homo sapiens, UniProt P02768); assay: Percent crosslinking of H.S.A. with glutaraldehyde in presence of denaturants; format: biochemical; conditions: as the concentration of denaturing agent increased; FIGS. 7-10
Protocol: The fractional amount of chemical crosslinking was measured by taking the ratio of added crosslinker attached to the protein relative to amount of initial protein on the sensor. Initially, protein is immobilized and washed on the Epic™ sensor and then measured for amount of immobilized protein. The protein is exposed to glutaraldehyde with a specified solution condition. The mass change that resulted from crosslinking is recorded again on the Epic™ system. The ratio of picometer change by crosslinker (due to mass increase) to mass of protein immobilized (as measured by initial change in picometer due to protein immobilization) is referred to as the fractional amount of crosslinking (% XL or % crosslinking), which is depicted in FIG. 6. This mass change by chemical crosslinking provides a “snap shot” of the conformational state accessible to cross linker.
As a protein or bioentity is denatured it should unfold and thereby increase the number of available sites for crosslinking.

[2] = target: T1, H.S.A.; assay: Conformational mode locking: trypsin digestion of H.S.A. after glutaraldehyde crosslinking; format: biochemical; conditions: 10% glutaraldehyde in 0.1 M phosphate pH 7
From the text: The use of covalent chemical crosslinking as a way of assaying conformational states or transitions of bioentities was investigated. H.S.A. was immobilized on an Epic™ sensor. The protein was crosslinked with glutaraldehyde under a variety of conditions (FIG. 5). Glutaraldehyde is a small molecular weight organic chemical (100 Dalton). It can undergo a variety of chemical crosslinking events with either itself or several amino acids. For this study, 10% glutaraldehyde in 0.1 M phosphate pH 7 was used. This was done to avoid the possibility of polymeric glut from forming. The amount of protein immobilized on the surface was also measured as well as the amount of chemical crosslinking and trypsin digestion. […] This effect was expected since crosslinking should affix the protein to the surface and render mass loss incapable. This finding should permit the ability to immobilize affinity capture molecules like antibodies and streptavidin and after crosslinking prevent their digestion. These crosslinked capture structures can then be used to specifically orient their antigens for antigen specific digestion.

[3] = target: T1, H.S.A.; assay: Tryptic digestion of H.S.A. after chemical modification; format: biochemical; conditions: 5 minute treatment of 2,3-butanedione; FIG. 20
From the text: In this type of assay, the digestion signal can be used as a means for screening large compound libraries for modulators of digestion (i.e. inhibitors or enhancers). The digestion inhibitors could be directed against-any lytic agent including but not limited to peptidases (as in the Caspase assay), proteases, nucleases, glucuronidase, glucosidase, lipases and the like. The assay is capable of detecting small molecule inhibitors of digestion of any molecular weight size. […] The extent to which an inhibitor can prevent digestion is assayed. […] The bar in FIG. 20, labeled 2,3-butanedione represents the net tryptic digestion of H.S.A. after a 5 minute treatment of 2,3-butanedione. The chemical 2,3-butanedione is an effective chemical modifier of amino acids such as lysine or arginine and is known in the art as an effective inhibitor of trypsin digestion via target modification.

[4] = tested on: rabbit IgG; assay: Trypsin digestion of rabbit IgG plus warfarin (specificity control); format: biochemical; conditions: generic protein control
From the text: (§1) The data indicates several properties.

[5] = tested on: trypsin; assay: Trypsin digestion of standard fluorescent substrate BZIP plus warfarin (specificity control); format: biochemical
From the text: It is contemplated that any conformationally altered ligand-bioentity complex can be further confirmed or characterized through secondary analysis such as peptide digest mapping, deuterium exchange studies, Michaelis-Menten kinetic studies, circular dichroism, intrinsic fluorescence analysis, competition studies with fluorescence polarization assays and the like. In addition, the effects that a ligand or putative ligand may have on the digesting agent may be analyzed using a known non-binding agent or through kinetic analysis using fluorescent assays or absorbance assays. For example, rhodamine 110, bis-(CBZ-L-isoleucyl-L-prolyl-L-arginine amide), dihydrochloride (BZiPAR, Invitrogen Inc.) may be used in fluorescence assays with trypsin and a putative ligand. Similarly, Nα-benzoyl-L-arginine ethyl ester hydrochloride (BAEE) may also be used for spectrophotometric assays with trypsin and other proteases.
as §1

[6] = tested on: trypsin or chymotrypsin; assay: Conformational assay: label-independent digestion of immobilized albumins; format: biochemical; conditions: relative to normal BSA; FIGS. 3 and 4
Protocol: In this assay, it was determined whether or not a label-independent detection assay can distinguish between different albumins by digestion with either trypsin or chymotrypsin on the Epic™ system.

[7] = tested on: trypsin; assay: Comparative trypsin digestion of myoglobin, apomyoglobin and heme-inserted apomyoglobin on Epic system; format: biochemical; conditions: approximately 23 minutes; for trypsin digestion (refractive index change): 15 units of trypsin in 1× PBS, FIGS. 18 and 19
Protocol: The heme inserted wells as well as the apoprotein and myoglobin wells were digested using 15 units of trypsin in 1× PBS. The digestion process was allowed to proceed for approximately 23 minutes with continuous monitoring of refractive index changes on the LID system. The hierarchy of digestion followed the following order; myoglobin (−250 pm)<apomyoglobin with heme (−350 pm)<apomyoglobin (−500 pm) (FIGS. 18 and 19). […] The difference between the native myoglobin and the heme inserted apomyoglobin may be a result of slight denaturation effects that were introduced in the preparation of the apomyoglobin protein.

[8] = target: T2, Calmodulin (CAM) (Homo sapiens, UniProt P0DP23); assay: Surrogate binding: calcium additions to immobilized calmodulin on Epic biosensor; conditions: nine additions of 200 μM calcium chloride
T2 construct: purchased Upstate cell signaling solutions 14-368
From the text: In this assay, the detection of macromolecular events whose mass changes are below detection due to sparingly low refractive index changes on a biosensor are consequentially assayed through surrogate associations that are then detectable by refractive index changes (i.e., any event (ion or not) which conveys a signature through association and is assayable on a biosensor).
Calmodulin (CAM) is a classic calcium binding protein. It binds four calcium ions per protein. At saturation, four ligands at a mass of 40 Daltons equals 160 Dalton is produced. This mass is expected to be below normal direct bind detection. However, upon calcium binding CAM undergoes a dramatic conformational transition. The physical changes by CAM play a crucial role in the functioning of this molecule in vivo. Fluorescent probes that sense hydrophobic transitions have been used for more than a decade. […] Calmodulin was chosen as the model system for the concept of surrogate direct binding because the binding of calcium to this protein should not be readily detectable on a biosensor (4×40 Dalton for calcium=160 Da).
CAM was ordered through Upstate cell signaling solutions (Cat #14-368). […] Yet, when a hydrophobic probe is employed (a surrogate direct bind probe), a calcium modulation interaction is detected.

[9] = target: equine cytochrome C (Equus caballus, UniProt P00004); assay: Catalytic digestion: trypsin digestion of immobilized cytochrome C with degrading catalyst; format: biochemical; conditions: 15 units of trypsin per well, FIG. 2
Protocol: Chem. Soc., 2004, 126:12833-12842 and tested as a degrading catalyst. On the Epic™ System, equine cytochrome C was chemically immobilized onto the EMA surface. The comparative trypsin digestion on the Epic™ system was measured. […] In these assays, 15 units of trypsin were used in each well. No titration was done for the enzyme, the cytochrome protein or the copper II porphyrin.

T1 sequence (P02768 25-609): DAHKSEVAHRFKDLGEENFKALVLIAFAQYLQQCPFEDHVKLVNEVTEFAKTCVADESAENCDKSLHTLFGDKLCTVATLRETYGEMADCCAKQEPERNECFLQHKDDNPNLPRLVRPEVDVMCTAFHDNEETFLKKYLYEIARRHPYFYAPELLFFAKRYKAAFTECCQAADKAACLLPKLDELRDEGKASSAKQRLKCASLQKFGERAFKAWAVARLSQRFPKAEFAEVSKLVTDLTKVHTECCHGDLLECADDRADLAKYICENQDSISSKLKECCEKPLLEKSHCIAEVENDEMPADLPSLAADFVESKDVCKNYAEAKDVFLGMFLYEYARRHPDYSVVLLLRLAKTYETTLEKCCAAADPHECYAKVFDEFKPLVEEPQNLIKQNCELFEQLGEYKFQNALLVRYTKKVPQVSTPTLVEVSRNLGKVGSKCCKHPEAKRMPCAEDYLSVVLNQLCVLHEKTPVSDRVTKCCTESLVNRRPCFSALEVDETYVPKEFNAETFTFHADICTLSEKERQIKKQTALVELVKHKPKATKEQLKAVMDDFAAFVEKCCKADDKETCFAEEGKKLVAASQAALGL
Chain of equine cytochrome C (P00004 whole entry): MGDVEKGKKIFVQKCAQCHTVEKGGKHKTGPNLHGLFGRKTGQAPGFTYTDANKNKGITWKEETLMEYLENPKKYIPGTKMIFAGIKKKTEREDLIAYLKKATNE

- percent crosslinking of H.S.A. with glutaraldehyde [1]: increasing percent crosslinking
Molecule: NC(N)=O [Urea]

- proteolytic (trypsin) digestion of H.S.A. after chemical crosslinking [2]: dramatically inhibited/attenuated
Molecule: O=CCCCC=O [glutaraldehyde]

Molecule: CC(=O)C(C)=O [2,3-butanedione]
- net tryptic digestion of H.S.A. after chemical modification [3]: digestion is effected by chemical modification

Molecule: CC(=O)CC(c1ccccc1)c1c(O)c2ccccc2oc1=O (centres unmarked) [warfarin]
- reduction in trypsin digestion rate, rabbit IgG plus warfarin [4]: no such reduction in digestion rate was observed
- reduction in trypsin digestion rate, BZIP plus warfarin [5]: no such reduction in digestion rate was observed

Molecule: [Cl-].[Na+] [NaCl]
- percent crosslinking of H.S.A. with glutaraldehyde [1]: increasing percent crosslinking

Molecule: methylated BSA: methylated bovine serum albumin immobilized on the biosensor
- digestion profile of immobilized albumin [6]: dramatic reduction in digestion rates

- percent crosslinking of H.S.A. with glutaraldehyde [1]: increasing percent crosslinking
Molecule: N=C(N)N [guanidine HCL]

Molecule: heme
- reduction in digestion of apomyoglobin caused by heme insertion ([7]; 15 units of trypsin): 140 picometer

- percent crosslinking of H.S.A. with glutaraldehyde [1]: increasing percent crosslinking
Molecule: [Cl-].[Cl-].[Mg+2] [MgCl]

Molecule: [Ca+2].[Cl-].[Cl-] [calcium chloride]
- binding detection of calcium to CAM with surrogate probe ([8]; 100 μM ANS hydrophobic probe present): binding event
- direct bind detection of calcium to CAM ([8]; CAM in 1×PBS without probe, relative to blocked wells): no binding data

Molecule: acetylated BSA: acetylated bovine serum albumin immobilized on the biosensor
- digestion profile of immobilized albumin [6]: dramatic enhanced digestion profile

Molecule: O=C(O)c1ccc(-c2c3nc(c(-c4ccc(C(=O)O)cc4)c4ccc([nH]4)c(-c4ccc(C(=O)O)cc4)c4nc(c(-c5ccc(C(=O)O)cc5)c5ccc2[nH]5)C=C4)C=C3)cc1.[Cu+2] [copper (II) tetra-(4-carboxyphenyl)porphyrin]
- trypsin digestion of cytochrome C with degrading catalyst [9]: significant enhancement of digestion

B1: myoglobin: native horse myoglobin (protein, UniProt P68082 2-154, looked up)
Myoglobin: GLSDGEWQQVLNVWGKVEADIAGHGQEVLIRLFTGHPETLEKFDKFKHLKTEAEMKASEDLKKHGTVVLTALGGILKKKGHHEAELKPLAQSHATKHKIPIKYLEFISDAIIHVLHSKHPGDFGADAQGAMTKALELFRNDIAAKYKELGFQG
- trypsin digestion (refractive index change) [7]: −250 pm

B2: apomyoglobin: horse apomyoglobin made by acid-acetone heme removal (protein, UniProt P68082 2-154, looked up)
Myoglobin: GLSDGEWQQVLNVWGKVEADIAGHGQEVLIRLFTGHPETLEKFDKFKHLKTEAEMKASEDLKKHGTVVLTALGGILKKKGHHEAELKPLAQSHATKHKIPIKYLEFISDAIIHVLHSKHPGDFGADAQGAMTKALELFRNDIAAKYKELGFQG
modifications: heme removed
notes: horse apomyoglobin made by acid-acetone heme removal
- trypsin digestion (refractive index change) [7]: −500 pm

B3: apomyoglobin with heme: apomyoglobin after heme insertion with 2 μM hemin (protein, UniProt P68082 2-154, looked up)
Myoglobin: GLSDGEWQQVLNVWGKVEADIAGHGQEVLIRLFTGHPETLEKFDKFKHLKTEAEMKASEDLKKHGTVVLTALGGILKKKGHHEAELKPLAQSHATKHKIPIKYLEFISDAIIHVLHSKHPGDFGADAQGAMTKALELFRNDIAAKYKELGFQG
modifications: heme reconstituted
notes: apomyoglobin after heme insertion with 2 μM hemin
- trypsin digestion (refractive index change) [7]: −350 pm
